How the values were obtained:
[1] = tested on: Stichococcus bacillaris SAG 379-1a / CCAP 379/1a; test: Algal efficacy testing of dry paint film (modified ASTM 5589), Stichococcus; assay type: cell-based; conditions: 3 weeks; for inhibition at 5000 ppm: Stichococcus bacillaris, 504 h, total conc 5000 ppm, visible algal growth vs blank; for Total conc (concentration chosen as minimum inhibitory concentration for SI): dry paint film, pass level ≧75% inhibition, total biocide in liquid paint
Description: (§1) Slurries containing 33% antimicrobial active ingredient (Zoxamide) and 45% antimicrobial ingredient Terbutryn were post added to a white, acrylic/silicone based outdoor paint free of biocides to give a total active ingredient concentration of […] respectively. These paints were then diluted with an antimicrobial free acrylic/silicone based paint and mixed to prepare targeted concentrations of antimicrobial compounds for the testing. The total biocides concentrations tested were 125, 250, 500, 1000, 2000 and 5000 ppm. After biocides addition or dilution, the paints were mixed 90 seconds with the horse power shaker (AXEL 75M3372/Agitateur SO-10MI) until uniformity was achieved. Paints containing different antimicrobial compounds at the same levels were mixed together in order to obtain the desired ratio of antimicrobial compounds. After one day, the paints were applied to Schleicher & Schuell filter paper at 280 μm wet film thickness and dried for 3 days at room temperature avoiding direct exposure to sunlight. Square discs (1.6 cm×1.6 cm) were cut out from each panel and were used as the substrate for algal efficacy tests. This sample size allowed for an agar border when the sample disc was placed into the well of the test plate.
(§2) Algal efficacy was tested according to modified ASTM 5589 which is a standard accelerated test method for determining resistance of various coatings (including paints) to algal defacement. To accommodate for high-throughput screening, this method was scaled down from petri dishes to 6-well plates. Bold Modified Basal Freshwater Nutrient Solution was used as growth medium. A single coated filter paper coupon was placed with a pair of sterile forceps at the center of the agar plug (on top) with the painted surface facing upwards. Algal inoculums were prepared by mixing equal concentrations (1×10^6 cfu/ml) and equal volumes of exponentially growing algae cultures.
(§3) Each well that contains a tested coupon was inoculated with 1750 μl of algal suspensions (1×10^6 cfu/ml) making sure that the whole surface (paint film as well as the agar surrounding it) was evenly covered. The plates were incubated at room temp (21° C.-25° C.) with cyclic exposure to light and dark phases, for a period of three weeks.
(§4) At the end of the three week incubation period, the samples were scored for percent inhibition regarding visible algal growth compared to the blank sample (0% inhibition).
(§5) The SI is calculated based on F .C. Kull et.
(§6) The minimal targeted inhibition was set at 75%, meaning a coupon with at least 75% algal growth inhibition was considered as a pass.

Chlorella sp. ATCC 7516 = test: Algal efficacy testing of dry paint film (modified ASTM 5589), Chlorella; assay type: cell-based; conditions: 3 weeks; for Total conc (concentration chosen as minimum inhibitory concentration for SI): dry paint film, pass level ≧75% inhibition, total biocide in liquid paint
Description: as §1, §2, §3, §4, §5, §6

For `CCNc1nc(NC(C)(C)C)nc(SC)n1` [Terbutryn, N^2-tert-butyl-N^4-ethyl-6-methylthio-1,3,5-triazine-2,4-diamine], the inhibition at 5000 ppm [1] was 80%, the “Total conc (concentration chosen as minimum inhibitory concentration for SI)” value [1] was 5000 ppm and the inhibition at 2000 ppm (Chlorella sp. ATCC 7516; 504 h, total conc 2000 ppm, visible algal growth vs blank) was 85%. For the same compound, the “Total conc (concentration chosen as minimum inhibitory concentration for SI)” value (Chlorella sp. ATCC 7516) was 2000 ppm.

In the case of `CCC(C)(NC(=O)c1cc(Cl)c(C)c(Cl)c1)C(=O)CCl` (centres unmarked) [Zoxamide, 3,5-Dichloro-N-(3-chloro-1-ethyl-1-methyl-2-oxopropyl)-4-methylbenzamide], the inhibition at 5000 ppm [1] is reported as 45%, the “Total conc (concentration chosen as minimum inhibitory concentration for SI)” value [1] is reported as 5000 ppm and the inhibition at 5000 ppm (Chlorella sp. ATCC 7516; 504 h, total conc 5000 ppm, visible algal growth vs blank) is reported as 60%. For the same compound, the “Total conc (concentration chosen as minimum inhibitory concentration for SI)” value (Chlorella sp. ATCC 7516) was 5000 ppm.

From US20150296783A1, “SYNERGISTIC COMBINATION OF A ZOXAMIDE COMPOUND AND TERBUTRYN FOR DRY FILM PROTECTION” (ROHM AND HAAS COMPANY, priority 2012, published 2015)
